The results in this text go back to a melting point compilation (Tetko et al.; mined from patent text by program, amines drawn as free bases though some values may be those of a salt).

`CC(C)(C)OC(=O)NCc1cccc(C2CCN(C(=O)c3ccc(C#Cc4ccccc4F)o3)CC2)c1` returned a melting point of 111 to 113 °C.

In turn, `CC(=O)Nc1ccc2nc(CN3[C@H](C)CCC[C@@H]3C)ccc2c1` had a melting point of 120 to 122 °C.

With `O=C(CBr)c1ccc(Cl)cc1OCc1ccccc1`, the melting point lay within 75 to 78 °C.

In turn, `O=C(NC[C@H]1CN(c2ccc(N3CCC4(CC3)OCCO4)c(F)c2)C(=O)O1)C(Cl)Cl` came in with a melting point of 175 to 178 °C.

Regarding `Brc1cnc2c(Br)cncc2c1`, the melting point fell in the range of 186 to 188 °C.

On to `Cc1ccncc1CN1CCC(=C2c3ccc(Cl)cc3CCc3cccnc32)CC1`, for which the melting point fell in the range of 95.5 to 101 °C.

`COc1cc(C(=O)c2c[nH]c(-c3ccc(C)cc3)n2)cc(OC)c1OC` registered a melting point of 201 to 203 °C.

`N#Cc1c(N2CCc3ccccc3CC2)nc(C2CC2)[nH]c1=O`: the melting point is greater than 200 °C.

On to `CC(C)(C)OC(=O)N1CCN(C2CC2)CC1`, for which the melting point was in the range of 65 to 67 °C.

Consider `Cc1ccc(C)c(-c2sc(NC(=O)[C@@H]3C[C@@H]4CC[C@H]3C4)c(C#N)c2Cl)c1`, for which the melting point fell in the range of 117 to 119 °C.

`COC(=O)c1cnc2c3cc(NC(=O)C4CCCCC4)ccc3ncn2c1=O` registered a melting point of 250 to 251 °C.

`CCN(CC)C(=O)Cc1cc(-c2ccccc2)nc2ccccc12` gave a melting point of 86 °C.

`CCOC(=O)c1c2ccc(CC(=O)NOCC(N)=O)ccc-2c(C(=O)OCC)c1N` displayed a melting point of 208 to 210 °C.

As for `O=C(NCCCn1ccnc1)Nc1ccc(Cl)cc1`, the melting point was 123 to 125 °C.

With `CC(C)(C)c1cc(CCc2ccccc2NC(=O)NC(c2ccccc2)c2ccccc2)cc(C(C)(C)C)c1O`, the melting point amounted to 187 °C.

With `COc1ccc(-c2cc(Cl)c3ccccc3n2)cc1Cl`, the melting point was 113 to 116 °C.

`O=C=Nc1ccc(F)cc1`: the melting point lay within 93 to 94 °C.

Compound `Cc1ccc(-c2ccccc2C(N)=O)cc1` came in with a melting point of 128 to 130 °C.

On to `CC(C)(C)OC(=O)N[C@@H](Cc1ccc2ccccc2c1)C(=O)OCc1ccccc1`, for which the melting point fell in the range of 90 to 91 °C.

For `COC(=O)c1ccc2c(c1)C=CC(=O)CO2`, the melting point was 89 to 93 °C.

The compound `COc1cc(CN2CCc3cc(OCc4ccccc4)c(OC)cc3C2)cc(OC)c1` returned a melting point of 95 to 96 °C.

Regarding `COC(=O)Cc1ccc(OCCNC(=O)C2Cc3ccccc3N2S(=O)(=O)c2ccc(-c3cccc(C(F)(F)F)c3)cc2)c(OC)c1` (stereo unspecified), the melting point was in the range of 52 to 60 °C.

Turning to `O=[N+]([O-])N=C1N(COCCBr)CCN1Cc1ccc(Cl)nc1`, the melting point was 90 to 92 °C.

`Cc1ccc2ccc(C(=O)O)nc2c1`: the melting point fell in the range of 160 to 162 °C.

For the compound `Cc1c(-c2ccncc2)[nH]c(-c2ccncc2)c1C(=O)OC(C)C`, the melting point is 218 to 221 °C.

`CS(=O)(=O)c1ccc(N2CCC(=O)CC2)cc1` came in with a melting point of 183 to 185 °C.

`CCOC(=O)c1c([N+](=O)[O-])ccc(OC)c1OC` gave a melting point of 70 to 72 °C.

Compound `CCOC(=O)N1CCN(C2=Nc3ccccc3Cc3nccn32)CC1` showed a melting point of 137 to 139 °C.

For `Cn1nc(S(=O)(=O)c2ccccc2)c2cc(N3CCN(Cc4ccccc4)CC3)ccc21`, the melting point is 195 to 197 °C.

Compound `O=c1[nH]nc(CO)c2ccccc12` displayed a melting point of 199 to 201 °C.

With `CCOCC(C)(C)COc1ccc(-c2ccc3c(c2)C=C(C(=O)Nc2ccc(CN(C)C4CCOCC4)cc2)CCS3(=O)=O)cc1`, the melting point was in the range of 209 to 210 °C.

With `O=C(OCc1ccccc1)ON1C(=O)CC2(CCN(C(=O)OCc3ccccc3)CC2)C1=O`, the melting point is 114 °C.

In turn, `COC(=O)c1cc(C(C)=O)c(C)nc1C1=NC(C)(C(C)C)C(=O)N1` (stereo unspecified) showed a melting point of 118 to 120 °C.

`CCN1CC2CCCC2C1CNC(=O)c1cc(Cl)c(N)cc1OC` (stereo unspecified) showed a melting point of 128 to 129 °C.

Regarding `Cc1n[nH]c2c1C(=O)CC(c1cc(Cl)sc1Cl)C2` (stereo unspecified), the melting point fell in the range of 167 to 168 °C.

On to `CC(=O)Nc1cccc(OCc2ccccc2)c1C`, for which the melting point lay in the range of 142 to 143 °C.

`COc1ccc(Cn2c(C(C)C)c(C(=O)c3cccnc3)c3ccccc32)cc1` had a melting point of 190 °C.

For the compound `O=C(NCCO)c1cccc(-c2cccc3c2CC(Cc2cccc(C(F)(F)F)c2)O3)c1` (stereo unspecified), the melting point is 120 to 121 °C.

Turning to `CCC(=O)C1=C(O)CC(c2c(C)c(C)c3c(c2C)OC(C)(C)C3)CC1=O` (stereo unspecified), the melting point fell in the range of 74 to 76 °C.

Take `CC(C#N)(COc1cc(F)c(F)cc1-c1ccsc1)NC(=O)c1ccc(OC(F)(F)F)cc1` (stereo unspecified): the melting point lay within 128 to 130 °C.

As to `CC(=O)OCc1c(C(=O)C(=O)O)c2cc(-c3cccc(C)c3)ccc2n1Cc1ccc(C)cc1`, the melting point was 89 to 90 °C.

In turn, `FC(F)(F)c1ccc(CN2CC3(COc4cc5c(cc43)CCO5)c3c(Br)cccc32)o1` (stereo unspecified) came in with a melting point of 182 to 184 °C.

`CCOC(=O)Cc1nc(C)n2c1CN=C(c1ccccc1Cl)c1cc(Cl)ccc1-2` gave a melting point of 143 to 154 °C.

The compound `O=C1CCc2c(ccc3ccc(O)cc23)O1` yielded a melting point of 194 to 202 °C.

Take `CCn1cc(-c2cccc(C(F)(F)F)c2)c(=O)n1-c1cccc(Br)c1`: the melting point was 106 °C.

For the compound `Cc1cc(Nc2cc(C(C)(C)C)c(O)c(C(C)(C)C)c2)n2nccc2n1`, the melting point fell in the range of 251 to 253 °C.

The compound `COc1ccc(S(=O)(=O)Oc2ccn3nc(-c4ccccc4)c(-c4ccc(=O)n(C(C)C)n4)c3c2)cc1` registered a melting point of 155 to 157 °C.

Take `COC(=O)CCC(NC(=O)Cc1cc(C)c(C(=O)c2ccc(Cl)cc2)n1C)C(=O)OC` (stereo unspecified): the melting point lay in the range of 129 to 130 °C.

Compound `N#CCCNC(=O)Cc1c(C(=O)c2ccccc2)[nH]c2cc(Cl)ccc12` showed a melting point of 233 to 234 °C.

For `CCOC(=O)c1c(Nc2ccccc2)nc2ccc(Br)cc2c1Cl`, the melting point fell in the range of 171 to 172 °C.

As for `CCOC(=O)c1c(-c2ccncc2)[nH]c(-c2ccncc2)c1CC`, the melting point lay in the range of 212 to 215 °C.

With `C1=Cc2ccccc2NC1`, the melting point lay within 89 to 90 °C.

`CCCCCC(=O)NCCCC(=NNC(N)=S)c1ccccc1` returned a melting point of 125 to 127 °C.

In turn, `CCCCc1cc(C(=O)O)ccc1C(N)C(=O)O` (stereo unspecified) showed a melting point of 227 °C.

Compound `O=C(NC(=O)c1c(F)cccc1F)Nc1cc(Cl)cc(C(F)(F)F)c1F` registered a melting point of 187 to 189 °C.

Compound `CNS(=O)(=O)c1ccc([N+](=O)[O-])cc1[N+](=O)[O-]` registered a melting point of 155 °C.

Consider `CSc1nc(-c2ccc(S(C)(=O)=O)cc2)n(-c2ccc(C)c(C)c2)c(=O)c1C#N`, for which the melting point was in the range of 245 to 247 °C.

In turn, `COC(=O)NN=C1CCCCCC1` showed a melting point of 75 °C.

On to `COCC1CN(c2ccc(C3CCC(OC(C)=O)CC3)cc2)C(=O)O1` (racemic), for which the melting point was in the range of 78 to 79 °C.

The compound `Cc1ccc2cccc(OCc3c(Cl)ccc(N(C)C(=O)CNC(=O)/C=C/c4ccc(NC(=O)c5cnccn5)nc4)c3Cl)c2n1` came in with a melting point of 220 to 231 °C.

In turn, `CC(C)(C)OC(=O)N1CCC(c2nc3cc(-c4ccc(-n5cnnn5)c(F)c4)ccc3o2)CC1` came in with a melting point of 154 to 159 °C.

`O=[N+]([O-])c1ccc(Oc2ccccc2-c2ccccc2Oc2ccc([N+](=O)[O-])cc2)cc1` yielded a melting point of 158 °C.

In turn, `Ic1cccc2c1CCOC2` had a melting point of 54 to 56 °C.

Compound `COC(=O)c1ccc(Nc2ccc(C(=O)OC)cc2)cc1` displayed a melting point of 174 to 175 °C.

On to `COC(=O)C1(c2c(F)cccc2F)Nc2ccccc2N1Cc1c(F)cccc1F` (stereo unspecified), for which the melting point lay in the range of 185 to 186 °C.

For `Cc1cn(C2=CCC(O)CC2)c(=O)[nH]c1=O` (racemic), the melting point stood at 223 °C.

In the case of `CCCc1nc2c(N)nc3cc(OCCCNS(=O)(=O)CCc4cccc5ccccc45)ccc3c2n1CC(C)C`, the melting point was 164 to 168 °C.

Compound `CN(C)C(=O)c1ccc2c(c1)C(=NNc1ccc(S(N)(=O)=O)cc1)C(=O)N2` yielded a melting point greater than 230 °C.

With `O=C(NCC1CCN(CCc2ccccn2)CC1)c1ccc2nonc2c1`, the melting point was 149 to 151 °C.

Regarding `CN(C)c1ncc(-c2cccc(Nc3ccc(-c4ccco4)cc3[N+](=O)[O-])c2)cn1`, the melting point lay in the range of 160 to 161 °C.

Regarding `OC(CBr)C(O)C(O)C(O)CBr` (stereo unspecified), the melting point lay in the range of 183 to 185 °C.

`COC(=O)C=C(c1ccc(C#N)cc1)n1ccnc1` came in with a melting point of 144 to 147 °C.

Compound `O=C(Nc1ccc(-n2nc(C3CC3)cc2C2CC2)cc1)c1cccc(F)c1F` had a melting point of 135 to 142 °C.

Consider `CCC(=O)Oc1ccc(/C(=C(/CC)c2ccccc2)c2ccc(/C=C/C(=O)O)cc2)cc1`, for which the melting point lay within 158 to 160 °C.

In turn, `CCn1cc(-c2ccccc2)c2ncccc2c1=O` came in with a melting point of 142 °C.

Turning to `COc1ccc(N2CCN(c3ccc(N)cn3)CC2)cc1`, the melting point was 134 to 135 °C.

As to `CN(C)C=NC(=O)c1c(N2CCN(Cc3ccccc3)CC2)nn2c(-c3cccc(C(F)(F)F)c3)ccnc12`, the melting point fell in the range of 140 to 142 °C.

As for `COC(=O)c1ccccc1S(=O)(=O)NC(=O)Nc1nc(C)cc(CO)n1`, the melting point is 140 to 141 °C.

Compound `CC(=O)Nc1ccccc1NS(=O)(=O)c1cc(C(=O)O)cc([N+](=O)[O-])c1Cl` gave a melting point of 225 to 227 °C.

As to `Cc1cn(-c2cccc(C(=O)CC(=O)Nc3cc(C#Cc4ccc(F)cc4)ccc3NC(=O)OC(C)(C)C)c2)cn1`, the melting point is 166 °C.

`CC(C)N(Cc1cnc(-c2ncn3c2CN(C)C(=O)c2cc(F)ccc2-3)o1)C(C)C` gave a melting point of 176 to 178 °C.

On to `COC(=O)N=C1SCCN1Cc1ccc(Cl)nc1`, for which the melting point lay in the range of 128 to 130 °C.

`O=c1c2cc(Cl)cc(Br)c2ncn1CCCN1CC=C(c2c[nH]c3ccccc23)CC1` yielded a melting point of 192 °C.

Compound `COc1cc(OCC(=O)O)c(C)cc1SCc1ccc(OCc2ccc(C(F)(F)F)cc2)cc1` gave a melting point of 145 °C.

`CCOC(=O)C(O)CCc1ccc(C(=O)CCc2nc(-c3ccccc3)oc2C)cc1` (stereo unspecified) had a melting point of 87 to 88 °C.

Regarding `O=C(C=CC1CCCCC1)NCCc1cccc(OCc2ccccc2)c1`, the melting point is 98 to 100 °C.

The melting point is the temperature of the solid-liquid transition.
